Tests used:
BACE1 = BACE1 (Homo sapiens, UniProt P56817); experiment: In vitro enzymatic BACE FRET assay; assay type: biochemical; conditions: IC50 range class; 0.2 nM enzyme, 50 nM FRET substrate, pH 4.2
Description: In Vitro Enzymatic BACE FRET (Fluorescence Resonance Energy Transfer) Assay (Enzyme Assay Data in Table 1)
The assay buffer used in this screen is 0.05 M acetate, pH 4.2, 10% DMSO final, 100 uM genapol (which is a nonionic detergent, below its Critical Micelle Concentration). The Beta Secretase enzyme (0.2 nM) is pre-incubated for one hour with inhibitors, typically in about 1 uL of DMSO according to a serial dilution, are added thereto. The assay is effectively started by the addition of FRET substrate (50 nM) and the combination is incubated for one hour. The FRET assay is terminated with by addition of Tris buffer, which raises the pH to neutrality, and the fluorescence is determined. The FRET substrate is a peptide with commercially available fluorophore and quencher, on opposite sides of the BACE cleavage site. Proteolytic cleavage of the FRET substrate releases quenching of fluorescence (excitation […] and […]).
Of the compounds tested, the in-vitro BACE FRET enzyme data for each of Examples 1-33, where available at the time of filing this application, is provided in Table 1.

[1] = test system: Aβ40 in conditioned medium of cells stably expressing Amyloid Precursor Protein (APP) (HEK cell); experiment: In vitro BACE cell-based assay (HEK cell assay, Aβ40 sandwich ELISA); conditions: Homo sapiens, HEK293; IC50 range class; inhibition of Aβ40 after 24 h incubation
Description: In Vitro BACE Cell-Based Assay:
The cell-based assay measures inhibition or reduction of Aβ40 □ in conditioned medium of test compound treated cells expressing amyloid precursor protein.
Cells stably expressing Amyloid Precursor Protein (APP) were plated at a density of 40K cells/well in 96 well plates (Costar). The cells were cultivated for 24 hours at 37° C. and 5% CO2 in DMEM supplemented with 10% FBS. The test compounds were then added to cells in 10-point dose response concentrations with the starting concentration being either 100 μM or 10 μM. The compounds were diluted from stock solutions in DMSO and the final DMSO concentration of the test compounds on cells was 0.1%. After 24 h of incubation with the test compounds the supernatant conditioned media was collected and the Aβ 40 levels were determined using a sandwich ELISA. The IC50 of the compound was calculated from the percent of control or percent inhibition of Aβ40 as a function of the concentration of the test compound.
The sandwich ELISA to detect Aβ 40 was performed in 96 well microtiter plates, which were pre-treated with goat anti-rabbit IgG (Pierce). The capture and detecting antibody pair that were used to detect Aβ 40 from cell supernatants were affinity purified pAb40 (Biosource) and biotinylated 6E10 (Signet Labs Inc.), respectively. The optimal concentration for the pAb40 antibody was 3 μg/ml in Superblock/TBS (Pierce) that was supplemented with 0.05% Tween 20 (Sigma). Optimal concentration for the detection antibody 6E10-biotinylated was 0.5 μg/ml in Superblock/TBS (Pierce) that had been supplemented with 2% normal goat serum and 2% normal mouse serum.
Cellular supernatants were incubated with the capture antibody for 3 h at 4° C., followed by 3 wash steps in TBS-tween (0.05%). The detecting antibody incubation was for 2 h at 4° C., again followed by the wash steps as described previously. The final readout of the ELISA is Time-Resolved Fluorescence (counts per minute) using Delfia reagents Streptavidin-Europium and Enhancement solutions (Perkin Elmer) and the Victor 2 multilabel counter (Perkin Elmer).
Of the compounds tested, the cell based assay data for each of Examples 1-33, where available at the time of filing this application, is provided in Table 1.

Sequence of BACE1 (P56817 46-501, species assumed): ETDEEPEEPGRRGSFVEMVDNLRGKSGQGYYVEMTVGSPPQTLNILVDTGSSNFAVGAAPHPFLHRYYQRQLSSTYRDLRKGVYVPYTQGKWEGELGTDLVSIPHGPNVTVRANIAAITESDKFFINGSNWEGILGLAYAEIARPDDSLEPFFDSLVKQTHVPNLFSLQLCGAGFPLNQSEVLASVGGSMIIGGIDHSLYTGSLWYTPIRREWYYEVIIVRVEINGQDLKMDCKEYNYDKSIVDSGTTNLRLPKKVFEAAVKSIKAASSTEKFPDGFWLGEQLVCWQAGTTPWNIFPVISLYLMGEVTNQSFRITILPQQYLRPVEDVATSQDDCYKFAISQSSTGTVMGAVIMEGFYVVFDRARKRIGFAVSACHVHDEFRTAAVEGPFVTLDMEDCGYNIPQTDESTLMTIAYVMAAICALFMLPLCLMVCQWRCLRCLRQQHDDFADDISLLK

IC50 (BACE1) [nM]	SMILES	IC50 [1] [nM]
< 100	Cc1ccccc1-c1ccc2nc(N)c(CC(C)c3cncc(C4CCCC4)c3)cc2c1 (centres unmarked) [Example 30, 3-(2-(5-cyclopentylpyridin-3-yl)propyl)-6-o-tolylquinolin-2-amine]	1000 to 5000
1000 to 5000	Cc1ccccc1-c1ccc2nc(N)c(CCc3ccccn3)cc2c1 [Example 29, 3-(2-(pyridin-2-yl)ethyl)-6-o-tolylquinolin-2-amine]	> 5000
100 to 1000	Cc1cccnc1-c1ccc2nc(N)c(CC(C)c3cc(CC(C)(C)C)ncn3)cc2c1 (centres unmarked) [Example 15, 6-(3-methylpyridin-2-yl)-3-(2-(6-neopentylpyrimidin-4-yl)propyl)quinolin-2-amine]	500 to 1000
100 to 1000	Cc1ccccc1-c1ccc2nc(N)c(CCc3cnn(Cc4ccccc4)c3)cc2c1 [Example 19, 3-(2-(1-benzyl-1H-pyrazol-4-yl)ethyl)-6-o-tolylquinolin-2-amine]	1000 to 5000
1000 to 5000	Cc1ccccc1-c1ccc2nc(N)c(CCc3cccc(C(F)(F)F)c3)cc2c1 [Example 23, 6-o-tolyl-3-(3-(trifluoromethyl)phenethyl)quinolin-2-amine]	> 5000
< 100	Cc1ccccc1-c1ccc2nc(N)c(CCc3cncc(C4CCCCC4)c3)cc2c1 [Example 3, 3-(2-(5-cyclohexylpyridin-3-yl)ethyl)-6-o-tolylquinolin-2-amine]	> 5000
100 to 1000	CCc1cc(C(C)Cc2cc3cc(-c4ccccc4C)ccc3nc2N)ncn1 (centres unmarked) [Example 10, 3-(2-(6-ethylpyrimidin-4-yl)propyl)-6-o-tolylquinolin-2-amine]	1000 to 5000
100 to 1000	Cc1ccccc1-c1ccc2nc(N)c(CCc3cncc(CC(C)C)c3)cc2c1 [Example 18, 3-(2-(5-isobutylpyridin-3-yl)ethyl)-6-o-tolylquinolin-2-amine]	1000 to 5000
100 to 1000	Cc1cccnc1-c1ccc2nc(N)c(CCc3cc(C(C)(C)C)ncn3)cc2c1 [Example 16, 3-(2-(6-tert-butylpyrimidin-4-yl)ethyl)-6-(3-methylpyridin-2-yl)quinolin-2-amine]	1000 to 5000
100 to 1000	Cc1ccccc1-c1ccc2nc(N)c(COc3cc(C(F)(F)F)ncn3)cc2c1 [Example 11, 6-o-tolyl-3-((6-(trifluoromethyl)pyrimidin-4-yloxy)methyl)quinolin-2-amine]	> 5000
1000 to 5000	Cc1ccccc1-c1ccc2nc(N)c(C=Cc3cnn(C4CCCCC4)c3)cc2c1 [Example 24, 3-(2-(1-cyclohexyl-1H-pyrazol-4-yl)vinyl)-6-o-tolylquinolin-2-amine]	> 5000
< 100	Cc1ccccc1-c1ccc2nc(N)c(CC(C)c3cc(C4CCCC4)ncn3)cc2c1 (centres unmarked) [Example 13, 3-(2-(6-cyclopentylpyrimidin-4-yl)propyl)-6-o-tolylquinolin-2-amine]	1000 to 5000
100 to 1000	Cc1ccccc1-c1ccc2nc(N)c(CCc3cncc(C4CCCCO4)c3)cc2c1 (centres unmarked) [Example 31, 3-(2-(5-(tetrahydro-2H-pyran-2-yl)pyridin-3-yl)ethyl)-6-o-tolylquinolin-2-amine]	1000 to 5000
< 100	Cc1ccccc1-c1ccc2nc(N)c(CCc3cnn(C4CCCCC4)c3)cc2c1 [Example 25, 3-(2-(1-cyclohexyl-1H-pyrazol-4-yl)ethyl)-6-o-tolylquinolin-2-amine]	1000 to 5000

More lines, now with the values behind:

SMILES	IC50 (BACE1) [nM]	IC50 [1] [nM]
Cc1ccccc1-c1ccc2nc(N)c(CCc3cncc(CCC(C)(C)C)c3)cc2c1 [Example 22, 3-(2-(5-(3,3-dimethylbutyl)pyridin-3-yl)ethyl)-6-o-tolylquinolin-2-amine]	100 to 1000	> 5000
Cc1ccccc1-c1ccc2nc(N)c(CCc3cncc(CC(C)(C)C)c3)cc2c1 [Example 21, 3-(2-(5-neopentylpyridin-3-yl)ethyl)-6-o-tolylquinolin-2-amine]	100 to 1000	> 5000
Cc1cccnc1-c1ccc2nc(N)c(CCc3cc(CC(C)(C)C)ncn3)cc2c1 [Example 6, 6-(3-methylpyridin-2-yl)-3-(2-(6-neopentylpyrimidin-4-yl)ethyl)quinolin-2-amine]	100 to 1000	1000 to 5000
Cc1ccccc1-c1ccc2nc(N)c(C=Cc3cncc(C4=CCCCC4)c3)cc2c1 [Example 2, 3-(2-(5-cyclohexenylpyridin-3-yl)vinyl)-6-o-tolylquinolin-2-amine]	100 to 1000	> 5000
CCc1cncc(CCc2cc3cc(-c4ccccc4C)ccc3nc2N)c1 [Example 5, 3-(2-(5-ethylpyridin-3-yl)ethyl)-6-o-tolylquinolin-2-amine]	1000 to 5000	1000 to 5000
Cc1ccccc1-c1ccc2nc(N)c(C3OCCCC3c3cc(CC(C)(C)C)ncn3)cc2c1 (single isomer, unassigned) [Example 7]	< 100	1000 to 5000
Cc1ccccc1-c1ccc2nc(N)c(CC(C)c3cc(CC(C)(C)C)ncn3)cc2c1 (centres unmarked) [Example 9, 3-(2-(6-neopentylpyrimidin-4-yl)propyl)-6-o-tolylquinolin-2-amine]	< 100	500 to 1000
Cc1cccc(C(=O)N2CCCC2C)c1-c1ccc2nc(N)c(CCc3cncnc3)cc2c1 (racemic) [Example 32, (±)-(2-(2-amino-3-(2-(pyrimidin-5-yl)ethyl)quinolin-6-yl)-3-methylphenyl)(2-methylpyrrolidin-1-yl)methanone]	< 100	< 500
Cc1cccnc1-c1ccc2nc(N)c(CCc3cc(C4CCOCC4)ncn3)cc2c1 [Example 20, 6-(3-methylpyridin-2-yl)-3-(2-(6-(tetrahydro-2H-pyran-4-yl)pyrimidin-4-yl)ethyl)quinolin-2-amine]	100 to 1000	1000 to 5000
CCc1cc(OCc2cc3cc(-c4ccccc4C)ccc3nc2N)ncn1 [Example 14, 6-o-tolyl-3-((6-ethylpyrimidin-4-yloxy)methyl)quinolin-2-amine]	> 5000	> 5000
Cc1ccccc1-c1ccc2nc(N)c(CCc3cc4ccccc4[nH]3)cc2c1 [Example 17, 3-(2-(1H-indol-2-yl)ethyl)-6-o-tolylquinolin-2-amine]	1000 to 5000	500 to 1000
Cc1cccc(C(=O)N2CCCC2)c1-c1ccc2nc(N)c(COc3cc(C(F)(F)F)ncn3)cc2c1 [Example 34, (2-(2-amino-3-((6-(trifluoromethyl)pyrimidin-4-yloxy)methyl)quinolin-6-yl)-3-methylphenyl)(pyrrolidin-1-yl)methanone]	100 to 1000	1000 to 5000
Cc1ccccc1-c1ccc2nc(N)c(C3CCCC3c3cc(C4CCCC4)ncn3)cc2c1 (centres unmarked) [Example 1, 3-(2-(6-cyclopentylpyrimidin-4-yl)cyclopentyl)-6-o-tolylquinolin-2-amine]	< 100	> 5000
Cc1ccccc1-c1ccc2nc(N)c(CC(C)c3cncc(C4CCCCC4)c3)cc2c1 (centres unmarked) [Example 27, 3-(2-(5-cyclohexylpyridin-3-yl)propyl)-6-o-tolylquinolin-2-amine]	< 100	> 5000
Cc1ccccc1-c1ccc2nc(N)c(CCc3cc(C(C)(C)C)ncn3)cc2c1 [Example 8, 3-(2-(6-tert-butylpyrimidin-4-yl)ethyl)-6-o-tolylquinolin-2-amine]	< 100	1000 to 5000
Cc1ccccc1-c1ccc2nc(N)c(CC(C)c3cncc(C4CCCCO4)c3)cc2c1 (centres unmarked) [Example 26, 3-(2-(5-(tetrahydro-2H-pyran-2-yl)pyridin-3-yl)propyl)-6-o-tolylquinolin-2-amine]	100 to 1000	1000 to 5000
Cc1ccccc1-c1ccc2nc(N)c(CCc3cnco3)cc2c1 [Example 28, 3-(2-(oxazol-5-yl)ethyl)-6-o-tolylquinolin-2-amine]	1000 to 5000	> 5000

— patent publication US8822485B2, “Amino heteroaryl compounds as beta-secretase modulators and methods of use” (Amgen Inc., priority 2010, dated 2014)
